Structures can show the parent of a compound that is named as a salt. Where two headings read alike, the source gives them in different places.

This assay concerns H9 cells. Kind of assay: qHTS for survival of dissociated H9 cells (CellTiter-Glo, 24 hours after seeding). The assay is classed as cell-based, human. The source says:
FIG. 2 schematically illustrates qHTS procedure.
All the screed compounds were received pre-plated at the pre-determined concentrations. […] Curve classification is explained in Huang et al. “Chemical genomics profiling of environmental chemical modulation of human nuclear receptors” Environ. Health. Perspect.
Background: Quantitative high-throughput screening tests each substance at several concentrations.

The mark [1] stands for this setting: H9 cell survival normalized to 10 μM Y-27632 (taken to be 100%).
Where [2] appears, read: H9 cell survival, CellTiter-Glo 24 hours after seeding; read-out: AC50 (concentration at 50% efficacy).
[3] abbreviates: H9 cell survival, normalized to 10 μM Y-27632.
Setting [4] is: Homo sapiens, H9, 24 h, H9 cell survival normalized to 10 μM Y-27632 (taken to be 100%); read-out: Max (maximum activity value from all tested concentrations).
[5] abbreviates: Homo sapiens, H9, 24 h, H9 cell survival, normalized to 10 μM Y-27632; read-out: Efficacy (activity range between predicted activities at zero and infinite doses, Hill equation).
Where [6] appears, read: Homo sapiens, H9, 24 h, H9 cell survival, CellTiter-Glo 24 hours after seeding; read-out: AC50 (concentration at 50% efficacy).
Setting [7] is: Homo sapiens, H9, 24 h; read-out: Efficacy (activity range between predicted activities at zero and infinite doses, Hill equation).
Setting [8] is: Homo sapiens, H9, 24 h; read-out: Max (maximum activity value from all tested concentrations).
The mark [9] stands for this setting: Homo sapiens; H9 cell survival, CellTiter-Glo 24 hours after seeding; read-out: AC50 (concentration at 50% efficacy).

Consider `CCn1c(-c2nonc2N)nc2cnc(Oc3cccc(NC(=O)c4ccc(OCCN5CCOCC5)cc4)c3)cc21` [GSK-269962A], for which the “Max (maximum activity value from all tested concentrations)” value under setting [1] turned out to be 133.3%. The AC50 under setting [2] came out at 11.8 µM. Besides, the “Efficacy (activity range between predicted activities at zero and infinite doses, Hill equation)” value under setting [3] is 106.

With `CCCCC1C(=O)N(c2ccccc2)N(c2ccc(O)cc2)C1=O` (centres unmarked) [OXYPHENBUTAZONE], under setting [1], the “Max (maximum activity value from all tested concentrations)” value was determined as 22.37%. Also, the AC50 under setting [2] came to 23.3 µM. Moreover, the “Efficacy (activity range between predicted activities at zero and infinite doses, Hill equation)” value under setting [3] is given as 25.7.

In the case of `COc1c(Nc2ncc(Cl)c(N[C@H]3[C@@H](C(N)=O)[C@@H]4C=C[C@H]3C4)n2)ccc2c1CC[C@@H](N1CCOCC1)CC2` [CEP-28122], the “Max (maximum activity value from all tested concentrations)” value under setting [1] is 23.83%. In addition, the AC50 under setting [2] was found to be 0.585 µM. In addition, the “Efficacy (activity range between predicted activities at zero and infinite doses, Hill equation)” value under setting [3] is 23.5.

Regarding `C[C@@H](N)c1ccc(C(=O)Nc2ccnc3[nH]ccc23)cc1` [Y-39983], the Emax runs as follows: under setting [4], 127%; under setting [5], 121%.

As to `O=C(Nc1ccc(-c2ccncc2)cc1)N[C@H](CO)c1ccccc1` [AS 1892802], under setting [1], the “Max (maximum activity value from all tested concentrations)” value was found to be 117.5%. Also, the AC50 under setting [2] is 1.31 µM. Also, under setting [3], the “Efficacy (activity range between predicted activities at zero and infinite doses, Hill equation)” value is reported as 115.

With `Cc1sc2c(c1C)C(c1ccc(Cl)cc1)=N[C@@H](CC(=O)NCCCCNC(=O)COc1cccc3c1C(=O)N(C1CCC(=O)NC1=O)C3=O)c1nnc(C)n1-2` (some centres unmarked) [dBETI], under setting [1], the “Max (maximum activity value from all tested concentrations)” value is on record as 62.14%. The AC50 under setting [2] amounted to 0.004 µM. Also, the “Efficacy (activity range between predicted activities at zero and infinite doses, Hill equation)” value under setting [3] is −67.9.

As to `CN1CCN(c2nc(C3=C(c4c[nH]c5ccccc45)C(=O)NC3=O)c3ccccc3n2)CC1` [Sotrastaurin], the Emax is 35.9% under setting [4] and 36.5% under setting [5]. In addition, the AC50 under setting [6] stood at 16.6 µM.

Regarding `O=C(Nc1ccc2[nH]ncc2c1)C1CCC1` [Rhodblock 6], the “Max (maximum activity value from all tested concentrations)” value under setting [1] is reported as 61.61%. The AC50 under setting [2] was 23.3 µM. Besides, the “Efficacy (activity range between predicted activities at zero and infinite doses, Hill equation)” value under setting [3] was 67.9.

Regarding `CCC[C@@]1(CCc2ccccc2)CC(O)=C([C@H](CC)c2cccc(NS(=O)(=O)c3ccc(C(F)(F)F)cn3)c2)C(=O)O1` [Tipranavir], the Emax is 26.5% under setting [7] and 21.8% under setting [8]. For the same compound, the AC50 under setting [9] was 26.1 µM.

As for `O=S(=O)(N=Cc1c(O)ccc2ccccc12)c1cccs1` [STF-083010], the “Max (maximum activity value from all tested concentrations)” value under setting [1] is listed as 66.46%. The AC50 under setting [2] stood at 26.4 µM. The “Efficacy (activity range between predicted activities at zero and infinite doses, Hill equation)” value under setting [3] was 82.4.

As for `N#Cc1cc(-c2ccnc(Nc3ccc(N4CCOCC4)cc3)n2)ccc1OC1CCOCC1` [IKK epsilon-IN-1], the “Max (maximum activity value from all tested concentrations)” value under setting [1] amounted to 28.74%. Also, the AC50 under setting [2] was 14.7 µM. The “Efficacy (activity range between predicted activities at zero and infinite doses, Hill equation)” value under setting [3] is on record as 30.6.

Regarding `O=S(=O)(c1cccc2cnccc12)N1CCNCC1` [HA-100], under setting [1], the “Max (maximum activity value from all tested concentrations)” value was 88.17%. The AC50 under setting [2] came out at 7.31 µM. Under setting [3], the “Efficacy (activity range between predicted activities at zero and infinite doses, Hill equation)” value is recorded as 88.9.

In the case of `C[S+]([O-])c1ccc(-c2nc(-c3ccncc3)c(-c3ccc(F)cc3)[nH]2)cc1` (centres unmarked) [SB-203580], the Emax is 37.4% under setting [7] and 35.6% under setting [8]. Moreover, under setting [9], the AC50 is 15.2 µM.

Take `Cc1nc(N2CCN(C(=O)c3ccco3)CC2)c2c3c(sc2n1)CCCC3` [ML192]: the “Max (maximum activity value from all tested concentrations)” value under setting [1] is 25.23%. Besides, the AC50 under setting [2] was found to be 0.521 µM. For the same compound, the “Efficacy (activity range between predicted activities at zero and infinite doses, Hill equation)” value under setting [3] is 13.5.

On to `CNCCC(Oc1ccc(C(F)(F)F)cc1)c1ccccc1` (centres unmarked) [Fluoxetine hydrochloride], for which the Emax runs as follows: under setting [4], 70.4%; under setting [5], 0%.

On to `O=C(NCc1cccc(O)c1)c1cc2cc(F)ccc2[nH]1` [KX1-004], for which, under setting [1], the “Max (maximum activity value from all tested concentrations)” value turned out to be 102.2%. For the same compound, under setting [2], the AC50 is 3.29 µM. Besides, the “Efficacy (activity range between predicted activities at zero and infinite doses, Hill equation)” value under setting [3] is 103.

As for `CCn1c(-c2nonc2N)nc2c(C#CCO)ncc(OCCCN)c21` [AKT Kinase Inhibitor], under setting [1], the “Max (maximum activity value from all tested concentrations)” value turned out to be 46.89%. Also, under setting [3], the “Efficacy (activity range between predicted activities at zero and infinite doses, Hill equation)” value is 0.

`C=C1CC[C@@H]2[C@@](C)(CO[C@@H]3O[C@H](CO)[C@@H](O)[C@H](O)[C@H]3O)[C@H](O)CC[C@@]2(C)[C@@H]1CC/C(C)=C/CO[C@@H]1O[C@H](CO)[C@@H](O)[C@H](O)[C@H]1O` [NCGC00385284-01]: under setting [1], the “Max (maximum activity value from all tested concentrations)” value is on record as 26.38%. The AC50 under setting [2] turned out to be 0.001 µM. Besides, the “Efficacy (activity range between predicted activities at zero and infinite doses, Hill equation)” value under setting [3] is recorded as −31.2.

Turning to `Cc1[nH]c2ccccc2c1CCNC(=O)c1cccs1` [CK-636], the “Max (maximum activity value from all tested concentrations)” value under setting [1] turned out to be 47.74%. In addition, the “Efficacy (activity range between predicted activities at zero and infinite doses, Hill equation)” value under setting [3] is 0.

For `Cc1n[nH]c2ccc(-c3cncc(OC[C@@H](N)Cc4c[nH]c5ccccc45)c3)cc12` [A-443654], the Emax reads like this: under setting [4], 39.8%; under setting [5], 0%.

Take `CC1=NN(c2ccccc2)C(=O)C1` [Edaravone]: the Emax is 21% under setting [4] and 11% under setting [5]. For the same compound, under setting [6], the AC50 turned out to be 0.521 µM.

`N#CCNC(=O)c1ccc(-c2ccnc(Nc3ccc(N4CCOCC4)cc3)n2)cc1` [Momelotinib]: the AC50 under setting [6] was 0.935 µM.

As for `CC(N/C(=N\C#N)Nc1ccncc1)C(C)(C)C` (centres unmarked) [Pinacidil], the AC50 under setting [6] was 21.1 µM. Besides, the Emax was 86.4% (Homo sapiens, H9, 24 h, read-out: Efficacy (activity range between predicted activities at zero and infinite doses, Hill equation)); 83.1% (Homo sapiens, H9, 24 h, read-out: Max (maximum activity value from all tested concentrations)).

On to `Cl.Cl.O=S(=O)(NCCNC/C=C/c1ccc(Br)cc1)c1cccc2cnccc12` [H-89], for which, under setting [1], the “Max (maximum activity value from all tested concentrations)” value is 25.95%. Also, the AC50 under setting [2] was found to be 1.87 µM. For the same compound, the “Efficacy (activity range between predicted activities at zero and infinite doses, Hill equation)” value under setting [3] was 16.9.

As for `N#CC[C@H](C1CCCC1)n1cc(-c2ncnc3[nH]ccc23)cn1` [Ruxolitinib, Freebase, Ruxolitinib], under setting [1], the “Max (maximum activity value from all tested concentrations)” value is listed as 87.05%. The “Efficacy (activity range between predicted activities at zero and infinite doses, Hill equation)” value under setting [3] is 48. Under setting [6], the AC50 was found to be 10.4 µM.

`CC1(C)[C@@H](O[C@H]2O[C@H](C(=O)O)[C@@H](O)[C@H](O)[C@H]2O[C@@H]2O[C@H](C(=O)O)[C@@H](O)[C@H](O)[C@H]2O)CC[C@]2(C)[C@H]3C(=O)C=C4[C@@H]5C[C@@](C)(C(=O)O)CC[C@]5(C)CC[C@@]4(C)[C@]3(C)CC[C@@H]12.N` [GLYCYRRHIZIC ACID. AMMONIUM SALT]: the “Max (maximum activity value from all tested concentrations)” value under setting [1] stood at 23.95%. Also, the AC50 under setting [2] was 14.7 µM. In addition, the “Efficacy (activity range between predicted activities at zero and infinite doses, Hill equation)” value under setting [3] is recorded as 26.

For the compound `CCCCOc1c(C(=O)c2c(F)cc(C)cc2F)c[nH]c2nncc1-2` [BMS-265246], the Emax is 42.8% under setting [4] and 33.9% under setting [5]. Further, the AC50 under setting [6] worked out at 1.18 µM.

Turning to `O=c1[nH]c2ccc(Cl)cc2c(N[C@@H]2CN3CCC2CC3)c1-c1nc2ccccc2[nH]1` [CHIR-124], the “Max (maximum activity value from all tested concentrations)” value under setting [1] is given as 21.27%. The AC50 under setting [2] is 0.235 µM. Moreover, the “Efficacy (activity range between predicted activities at zero and infinite doses, Hill equation)” value under setting [3] is reported as 12.4.

The values are drawn from patent publication US20210348119A1, “COMPOSITIONS AND METHODS FOR CELL CULTURE” (The United States of America as Represented By The …, priority 2018, published 2021).
